Measured values as given in patent US8936807B2, “Use of the cathelicidin LL-37 and derivatives thereof for wound healing” (Lipopeptide AB, priority 2003, dated 2015).

Tests used:
[1] = tested on: HaCat cells; experiment: Proliferation of HaCat cells assessed by 3H-Thymidine incorporation; format: cell-based, human; settings: 10% serum, 96 h; for Increased Proliferation (%): vs control 0 μg/ml
Method: HaCat cells were cultured in medium (DMEM, +10% FCS and PEST). HaCaT cells were plated in 96 well plates (Falcon, USA) at the concentration of 2000 cells per well. Cells were plated at −48 hours and stimulated with different concen-trations of synthetic LL-37, LL-36, and LL-38 peptide by hour 0 and after 48 hours.
The testing was done in one experiment with 6 wells in each condition. […] of ^3H-Thymidine (THYMIDINE, [METHYL-^3H]-740.0 GBq/mmol (20.00 Ci/mmol) 1.0 ml of Ethanol:Water, 7:3, Perkin Elmer Life Sciences Inc. Boston Mass., USA) was added to each well and incubated for 12-17 hours. Proliferation was evaluated by ^3H-Thymidine incorporation a liquid scintilator (MicroBeta Perkin Elmer Life Sciences Inc. Boston Mass., USA) after 72 and 96 hours.

[2] = Storage of the CD samples for one month at 4° C.; format: physicochemical
Method: (§1) Samples for circular dichroism (CD) measurements were prepared in 10 mM aqueous phosphate buffer solution, pH 7.0, containing 200 ppm LL-37 (as the trifluoroacetate, lot 971/26), with and without 0.40% CPL-Galactolipid. The samples, 20 ml in 50 ml glass flasks, were vigorously shaken with an ST mixer (type B1, E. Büchler, Tübingen) set at 7.5 (corresponding to an approximate frequency of 220/min) for 2 h. They were then allowed to equilibrate and settle over night at 2-8° C.
An anionic synthetic phospholipid, palmitoyl-oleoyl-phosphatidylglycerol (POPG; Sigma-Aldrich, P6956) was used as a reference and tested using the same experimental conditions as described above.

[3] = tested on: Human Normal Fibroblast; experiment: Proliferation and viability of human normal fibroblasts (WST-1); format: cell-based; settings: 10% serum, 48 Hours; for Increased Proliferation (%): vs control
Text: (§2) The peptide LL-37 used in this and following tests was as described in Example 1 (lot 971/26). The fibroblasts, a type of stromal cells, were obtained from injured and uninjured skin in patients with chronic leg ulcers due to venous insufficiency. Punch-biopsies (4-mm) were taken from the wound margin including 50% of the epithelialized area and from uninjured skin in the knee region. Individuals with a history of diabetes mellitus, arterial insufficiency or chronic inflammatory disease were excluded. Patients with signs of eczema in the ulcer margin, clinical signs of infection or undergoing systemic or topical antibiotic treatment at the time for biopsy were also excluded. Patients included were all treated with inert local dressings and standard compression bandaging.
(§3) Fibroblast were put in culture using explant technique (Hehenberger et al., Cell Biochem Funct 15:197-201, 1997). Fibroblasts were plated in 96 well plates (Falcon, USA) at the concentration of 2000 cells per well. Cells were plated at −48 hours and stimulated with different concentrations of synthetic LL-37 peptide by hour 0. The testing was done in one experiment with 6 wells in each condition. Proliferation and viability were ascertained by measuring mitochondrial activity (WST-1, Roche) after 24 h and 48 h. Increase in cell proliferation (Proliferation Index) is calculated in comparison with baseline (Control=0 μg/ml). Mean values from six samples per condition in one experiment are presented.

[4] = tested on: Human Wound Fibroblast; experiment: Proliferation and viability of human wound fibroblasts (WST-1); format: cell-based; settings: 48 Hours; for Increased Proliferation (%): vs control
Text: as §2, §3

[5] = tested on: HaCat cells; experiment: Proliferation of HaCat cells assessed by flowcytometry and Trypan-Blue; format: cell-based, human; settings: for Increased Proliferation (%): vs baseline
Method: HaCat cells were used for these experiments. HaCat cells are an immortalized human keratinocyte cell line (Boukamp et al., J Cell Biol 106:761-771, 1988), which is suitable for experimental keratinocyte research. HaCat cells were cultured in medium (DMEM, +10% FCS and PEST). Both types of cell cultures were treated with synthetic, bioactive LL-37 (lot YS 5253). […] Cells were harvested at different time-points (24 h, 48 h, 72 h and 96 h) and counted by flowcytometry (Becton-Dickinson) and stained by Trypan-Blue to evaluate viability. […] Proliferation and viability were also ascertained by measuring mitochondrial activity (WST-1, Roche, Cook et al. Anal Biochem 179:1-7, 1989).

[6] = Circular dichroism (CD) conformational measurements; format: physicochemical
Method: as §1
CD spectra were recorded on a Jasco J-720 (Jasco Inc.) spectropolari-meter. The sample compartment with the cuvette cell (1 mm path length) was placed near the photomultiplier, in order to reduce effects of light scattering from the disper-sions. The samples were measured at room temperature and scanned from 280 to 200 nm at a rate of 20 nm/min, with a resolution of 1 nm and 3 accumulations per run. The results are expressed as the mean residue ellipticity, [θ], and the percentage of α-helical conformation at 222 nm is estimated by the following formula: ([θ]222+3900)·100/41900.

[7] = LL-37 25 μg/ml, no lipid, 10% serum
[8] = LL-37 50 μg/ml, no lipid, 10% serum
[9] = LL-37 100 μg/ml, no lipid, 10% serum
[10] = LL-37 100 μg/ml, with lipid 0.2%, 2% serum
[11] = LL-37 25 μg/ml, 10% serum, 96 h
[12] = LL-37 50 μg/ml, 10% serum, 96 h
[13] = LL-37 100 μg/ml, 2% serum, 96 h
[14] = LL-37 100 μg/ml, 10% serum, 96 h
[15] = LL-37 100 μg/ml, no lipid, 2% serum, 72 h
[16] = LL-37 100 μg/ml, no lipid, 10% serum, 72 h
[17] = LL-37 100 μg/ml, with lipid 0.2%, 2% serum, 72 h
[18] = LL-37 100 μg/ml, with lipid 0.2%, 10% serum, 72 h

LLGDFFRKSKEKIGKEFKRIVQRIKDFLRNLVPRTES [LL-37]
Counts Per Minute (Mean) ([1]; LL-37 1.00 μg/ml): 75445 Counts Per Minute | Increased Proliferation (%) ([1]; LL-37 1.00 μg/ml): 43% | Counts Per Minute (Mean) ([1]; LL-37 5.00 μg/ml): 102353 Counts Per Minute | Increased Proliferation (%) ([1]; LL-37 5.00 μg/ml): 94% | Counts Per Minute (Mean) ([1]; LL-37 10.00 μg/ml): 73548 Counts Per Minute | Increased Proliferation (%) ([1]; LL-37 10.00 μg/ml): 39% | Counts Per Minute (Mean) ([1]; LL-37 25.00 μg/ml): 76510 Counts Per Minute | Increased Proliferation (%) ([1]; LL-37 25.00 μg/ml): 45% | Counts Per Minute (Mean) ([1]; LL-37 50.00 μg/ml): 65119 Counts Per Minute | Increased Proliferation (%) ([1]; LL-37 50.00 μg/ml): 23% | appearance after storage ([2]; LL-37 with POPG): partially separated, with sediments on the bottom of the container | appearance after storage ([2]; LL-37 with galactolipid): redispersed to a fine dispersion by gentle agitation | Absorbance ([3]; LL-37 25 μg/ml): 0.597 | Increased Proliferation (%) ([3]; LL-37 25 μg/ml): 7% | Absorbance ([3]; LL-37 50 μg/ml): 0.626 | Increased Proliferation (%) ([3]; LL-37 50 μg/ml): 12% | Absorbance ([3]; LL-37 100 μg/ml): 0.669 | Increased Proliferation (%) ([3]; LL-37 100 μg/ml): 19% | Absorbance [4, 7]: 1.171 | Increased Proliferation (%) [4, 7]: 49% | Absorbance [4, 8]: 1.073 | Increased Proliferation (%) [4, 8]: 37% | Absorbance [4, 9]: 0.955 | Increased Proliferation (%) [4, 9]: 22% | Absorbance [4, 10]: 0.960 | Increased Proliferation (%) [4, 10]: 22% | Number of Cells (Mean) ([5]; LL-37 25 μg/ml, 2% serum, 96 h): 32130 | Trypan Blue + (%) ([5]; LL-37 25 μg/ml, 2% serum, 96 h): <1% | Increased Proliferation (%) ([5]; LL-37 25 μg/ml, 2% serum, 96 h): 0% | Number of Cells (Mean) [5, 11]: 36470 | Trypan Blue + (%) [5, 11]: <1% | Increased Proliferation (%) [5, 11]: 13% | Number of Cells (Mean) ([5]; LL-37 50 μg/ml, 2% serum, 96 h): 53620 | Trypan Blue + (%) ([5]; LL-37 50 μg/ml, 2% serum, 96 h): 30-50% | Increased Proliferation (%) ([5]; LL-37 50 μg/ml, 2% serum, 96 h): Cytotoxic effect | Number of Cells (Mean) [5, 12]: 40950 | Trypan Blue + (%) [5, 12]: <1% | Increased Proliferation (%) [5, 12]: 27% | Number of Cells (Mean) [5, 13]: 15120 | Trypan Blue + (%) [5, 13]: 100% | Increased Proliferation (%) [5, 13]: Cytotoxic effect | cytotoxic effect when lipid was added (in words) ([5]; LL-37 100 μg/ml, 2% serum, lipid added): completely abolished | Number of Cells (Mean) [5, 14]: 66430 | Trypan Blue + (%) [5, 14]: <1% | Increased Proliferation (%) [5, 14]: 100% | Trypan Blue staining (in words) ([5]; LL-37 100 μg/ml, medium containing 2% FCS): all of the keratinocytes became positive with Trypan Blue staining | Number of Cells (Mean) [5, 15]: 150500 | Trypan Blue + (%) [5, 15]: 100% | Increased Proliferation (%) [5, 15]: Cytotoxic effect | Number of Cells (Mean) [5, 16]: 88853 | Trypan Blue + (%) [5, 16]: <1% | Increased Proliferation (%) [5, 16]: 61% | Number of Cells (Mean) [5, 17]: 87360 | Trypan Blue + (%) [5, 17]: <1% | Increased Proliferation (%) [5, 17]: 58% | Number of Cells (Mean) [5, 18]: 91980 | Trypan Blue + (%) [5, 18]: <1% | Increased Proliferation (%) [5, 18]: 66% | proliferation of HaCat cells (in words) ([5]; LL-37 25-100 μg/ml, media with 10% FCS): increases proliferation in a concentration-dependent manner | percentage α-helical structure ([6]; 200 ppm LL-37 in 10 mM phosphate buffer, pH 7.0, from minimum at 222 nm): about 63% | percentage α-helical structure ([6]; 200 ppm LL-37 with 0.40% (w/w) galactolipid, 10 mM phosphate buffer pH 7.0): ~64% | percentage α-helical structure ([6]; LL-37 with POPG (anionic phospholipid), same conditions): 58%
